Test results from US20160122320A1, “USEFUL COMBINATIONS OF MONOBACTAM ANTIBIOTICS WITH BETA-LACTAMASE INHIBITORS” (Basilea Pharmaceutica AG, priority 2005, published 2016).
Structures can show the parent of a compound that is named as a salt.

Experiments:
Experiment in all cases: MIC, NCCLS broth microdilution
Type in all cases: cell-based
Serratia marcescens S6 = conditions: for MIC of antibiotic at fixed inhibitor concentration (4 mg/L): MIC of antibiotic compound 1 with the labelled bridged monobactam of formula II and clavulanate, 4 mg/L each
[1] = system: Klebsiella pneumoniae CF104; conditions: for MIC of antibiotic at fixed inhibitor concentration (4 mg/L): MIC of antibiotic compound 1 with the labelled bridged monobactam of formula II and clavulanate, 4 mg/L each
Acinetobacter sp. J2 = conditions: for MIC of antibiotic at fixed inhibitor concentration (4 mg/L): Acinetobacter sp. J2, MIC of antibiotic compound 1 with the labelled bridged monobactam of formula II and clavulanate, 4 mg/L each
[2] = system: Pseudomonas aeruginosa 1973E; conditions: for MIC of antibiotic at fixed inhibitor concentration (4 mg/L): MIC of antibiotic compound 1 with the labelled bridged monobactam of formula II and clavulanate, 4 mg/L each
Procedure: Antimicrobial activity of the compounds and of their combinations was determined against a selection of organisms according to the standard procedures described by the National Committee for Clinical Laboratory Standards (National Committee for Clinical Laboratory. Standards (2000). Methods for Dilution Antimicrobial Susceptibility Tests for Bacteria That Grow Aerobically-Fifth Edition: Approved Standard M7-A5. NCCLS, Wayne, Pa., USA).
In all cases the final concentration of DMSO incubated with the bacteria is less than or equal to 1%. […] Plates were incubated overnight at an appropriate temperature (30° C. or 37° C.) and optical densities assessed by eye. The MIC value is defined as the lowest compound concentration completely inhibiting visible growth of the test organism. When combinations between compounds of formula I with compounds of formula II and are evaluated the compounds of formula I are tested in dilution series as described above while the compounds of formula II and III-XIII were present in all wells at a constant concentration of 4 μg/mL each.

[3] = system: Stenotrophomonas malthophilia 1AC736; conditions: for MIC of antibiotic at fixed inhibitor concentration (4 mg/L): Stenotrophomonas malthophilia 1AC736, MIC of antibiotic compound 1 with the labelled bridged monobactam of formula II and clavulanate, 4 mg/L each
[4] = system: Pseudomonas aeruginosa MK1184; conditions: for MIC of antibiotic at fixed inhibitor concentration (4 mg/L): MIC of antibiotic compound 1 with the labelled bridged monobactam of formula II and clavulanate, 4 mg/L each
Enterobacter cloacae P99 = conditions: for MIC of antibiotic at fixed inhibitor concentration (4 mg/L): MIC of antibiotic compound 1 with the labelled bridged monobactam of formula II and clavulanate, 4 mg/L each

## O=C(Nc1ccc(O)c(O)c1)N1CC[C@@H]2[C@H]1C(=O)N2S(=O)(=O)[O-].[Na+] [Compound 306, Sodium(1S,5R)-2-[N-(3,4-dihydroxyphenyl)carbamoyl]-7-oxo-2,6-diazabicyclo[3.2.0]heptane-6-sulfonate]
Serratia marcescens S6
  MIC of antibiotic at fixed inhibitor concentration (4 mg/L): 0.5 µg/mL
[1]
  MIC of antibiotic at fixed inhibitor concentration (4 mg/L): 2 µg/mL
Acinetobacter sp. J2
  MIC of antibiotic at fixed inhibitor concentration (4 mg/L): >32 µg/mL
[2]
  MIC of antibiotic at fixed inhibitor concentration (4 mg/L): 4 µg/mL
[3]
  MIC of antibiotic at fixed inhibitor concentration (4 mg/L): 0.25 µg/mL
[4]
  MIC of antibiotic at fixed inhibitor concentration (4 mg/L): >32 µg/mL
Enterobacter cloacae P99
  MIC of antibiotic at fixed inhibitor concentration (4 mg/L): 32 µg/mL

## NC(=O)c1c[n+](CC(=O)N2CC[C@@H]3[C@H]2C(=O)N3S(=O)(=O)[O-])ccc1N [Compound 126, (1S,5R)-2-[2-(4-amino-3-carbamoylpyridinium)acetyl]-7-oxo-2,6-diazabicyclo[3.2.0]heptane-6-sulfonate, inner salt]
Serratia marcescens S6
  MIC of antibiotic at fixed inhibitor concentration (4 mg/L): 0.125 µg/mL
[1]
  MIC of antibiotic at fixed inhibitor concentration (4 mg/L): >32 µg/mL
Acinetobacter sp. J2
  MIC of antibiotic at fixed inhibitor concentration (4 mg/L): 2 µg/mL
[2]
  MIC of antibiotic at fixed inhibitor concentration (4 mg/L): 8 µg/mL
[3]
  MIC of antibiotic at fixed inhibitor concentration (4 mg/L): 0.125 µg/mL
[4]
  MIC of antibiotic at fixed inhibitor concentration (4 mg/L): 16 µg/mL
Enterobacter cloacae P99
  MIC of antibiotic at fixed inhibitor concentration (4 mg/L): 32 µg/mL

## CN(C)n1ccc(SCC(=O)N2CC[C@@H]3[C@H]2C(=O)N3S(=O)(=O)O)nc1=O [Compound 203, (1S,5R)-2-{2-[1-(dimethylamino)-2-oxohydropyrimidin-4-ylthio]acetyl}-7-oxo-2,6-diazabicyclo[3.2.0]heptane-6-sulfonic acid]
Serratia marcescens S6
  MIC of antibiotic at fixed inhibitor concentration (4 mg/L): 0.25 µg/mL
[1]
  MIC of antibiotic at fixed inhibitor concentration (4 mg/L): 1 µg/mL
Acinetobacter sp. J2
  MIC of antibiotic at fixed inhibitor concentration (4 mg/L): 2 µg/mL
[2]
  MIC of antibiotic at fixed inhibitor concentration (4 mg/L): 4 µg/mL
[3]
  MIC of antibiotic at fixed inhibitor concentration (4 mg/L): 8 µg/mL
[4]
  MIC of antibiotic at fixed inhibitor concentration (4 mg/L): 32 µg/mL
Enterobacter cloacae P99
  MIC of antibiotic at fixed inhibitor concentration (4 mg/L): 32 µg/mL

## NC(=O)OCC1C(NC(=O)C(=NOCc2cc(=O)c(O)cn2O)c2csc(N)n2)C(=O)N1OS(=O)(=O)O (stereo not shown) [Compound 25]
Serratia marcescens S6; antibiotic alone, no inhibitor
  MIC of antibiotic: 1 µg/mL
Serratia marcescens S6; with 102 and clavulanate
  MIC of antibiotic at fixed inhibitor concentration of 4 mg/L: 1 µg/mL
Serratia marcescens S6; with 324 and clavulanate
  MIC of antibiotic at fixed inhibitor concentration of 4 mg/L: 1 µg/mL
[1]; antibiotic alone, no inhibitor
  MIC of antibiotic: >32 µg/mL
[1]; with 102 and clavulanate
  MIC of antibiotic at fixed inhibitor concentration of 4 mg/L: 0.5 µg/mL
[1]; with 324 and clavulanate
  MIC of antibiotic at fixed inhibitor concentration of 4 mg/L: 0.5 µg/mL
Acinetobacter sp. J2; Acinetobacter baumannii J2, antibiotic alone, no inhibitor
  MIC of antibiotic: >32 µg/mL
Acinetobacter sp. J2; Acinetobacter baumannii J2, with 102 and clavulanate
  MIC of antibiotic at fixed inhibitor concentration of 4 mg/L: 16 µg/mL
Acinetobacter sp. J2; Acinetobacter baumannii J2, with 324 and clavulanate
  MIC of antibiotic at fixed inhibitor concentration of 4 mg/L: >32 µg/mL
[2]; antibiotic alone, no inhibitor
  MIC of antibiotic: 16 µg/mL
[2]; with 102 and clavulanate
  MIC of antibiotic at fixed inhibitor concentration of 4 mg/L: 4 µg/mL
[2]; with 324 and clavulanate
  MIC of antibiotic at fixed inhibitor concentration of 4 mg/L: 8 µg/mL
[3]; Stenotrophomonas maltophilia 1AC736, antibiotic alone, no inhibitor
  MIC of antibiotic: 4 µg/mL
[3]; Stenotrophomonas maltophilia 1AC736, with 102 and clavulanate
  MIC of antibiotic at fixed inhibitor concentration of 4 mg/L: 1 µg/mL
[3]; Stenotrophomonas maltophilia 1AC736, with 324 and clavulanate
  MIC of antibiotic at fixed inhibitor concentration of 4 mg/L: 1 µg/mL
[4]; antibiotic alone, no inhibitor
  MIC of antibiotic: >32 µg/mL
[4]; with 102 and clavulanate
  MIC of antibiotic at fixed inhibitor concentration of 4 mg/L: 4 µg/mL
[4]; with 324 and clavulanate
  MIC of antibiotic at fixed inhibitor concentration of 4 mg/L: 8 µg/mL
Enterobacter cloacae P99; antibiotic alone, no inhibitor
  MIC of antibiotic: >32 µg/mL
Enterobacter cloacae P99; with 102 and clavulanate
  MIC of antibiotic at fixed inhibitor concentration of 4 mg/L: 8 µg/mL
Enterobacter cloacae P99; with 324 and clavulanate
  MIC of antibiotic at fixed inhibitor concentration of 4 mg/L: 4 µg/mL

## Nc1ccc(NC(=O)N2CC[C@@H]3[C@H]2C(=O)N3S(=O)(=O)[O-])cc1.[Na+] [Compound 327, Sodium(1S,5R)-2-[N-(4-aminophenyl)carbamoyl]-7-oxo-2,6-diazabicyclo[3.2.0]heptane-6-sulfonate]
Serratia marcescens S6
  MIC of antibiotic at fixed inhibitor concentration (4 mg/L): 0.25 µg/mL
[1]
  MIC of antibiotic at fixed inhibitor concentration (4 mg/L): 2 µg/mL
Acinetobacter sp. J2
  MIC of antibiotic at fixed inhibitor concentration (4 mg/L): 2 µg/mL
[2]
  MIC of antibiotic at fixed inhibitor concentration (4 mg/L): 2 µg/mL
[3]
  MIC of antibiotic at fixed inhibitor concentration (4 mg/L): 0.125 µg/mL
[4]
  MIC of antibiotic at fixed inhibitor concentration (4 mg/L): >32 µg/mL
Enterobacter cloacae P99
  MIC of antibiotic at fixed inhibitor concentration (4 mg/L): 32 µg/mL
